The numbers were not newly measured in article PMC10166914, “GTN057, a komaroviquinone derivative, induced myeloma cells' death in vivo and inhibited c‐MET tyrosine kinase” (Cancer Medicine, 2023), which cites them from elsewhere.

The IC50 is the midpoint of a concentration-inhibition curve.

The data set deals with MUM24 cells. Also noted: method as in PMID 28882484. As to conditions: read-out: IC50 antiproliferative activity; cited from earlier work.

With `COc1c(O)c2c(c(O)c1C(C)C)C(=O)CC1C(C)(C)CCC[C@]1(O)C2` (stereo partly shown) [GTN054], the IC50 was 6.13 µM.
